Data on two molecules can be found in PMC6352943, “Novel pyrazolo[3,4-d]pyrimidines: design, synthesis, anticancer activity, dual EGFR/ErbB2 receptor tyrosine kinases inhibitory activity, effects on cell cycle profile and caspase-3-mediated apoptosis” (Journal of Enzyme Inhibition and Medicinal Chemistry, 2019).

One data set relates to OVCAR-4. Nature of the data set: MTT cell viability assay. Format: cell-based, human. The settings on record: Homo sapiens; OVCAR-4 ovarian cancer, MTT, 48 h, mean ± SD of three experiments; read-out: IC50 (concentration required for 50% inhibition of cell viability). As for the experimental part: (§1) Cell Line cells were obtained from American Type Culture Collection, cells were cultured using Dulbecco's Modified Eagle's medium (DMEM) (Invitrogen/Life Technologies) supplemented with 10% foetal bovine serum (FBS) (Hyclone), 10 μg/mL of insulin (Sigma), and 1% penicillin-streptomycin. All of the other chemicals and reagents were from Sigma, or Invitrogen. Plate cells (cells density 1.2 – 1.8 × 10,000 cells/well) in a volume of 100 µL complete growth medium and 100 μL of the tested compound per well in a 96-well plate for 24 h before the MTT assay.
(§2) Remove culture medium to a centrifuge tube. […] Add 2.0 to 3.0 ml of Trypsin EDTA solution to flask and observe cells under an inverted microscope until cell layer is dispersed. Add 6 to 8 ml of complete growth medium and aspirate cells by gently pipetting. Transfer the cell suspension to the centrifuge tube with the medium and centrifuge for 5 to 10 min. Discard the supernatant. Resuspend the cell pellet in fresh growth medium. Add appropriate aliquots of the cell suspension to new culture vessels. Incubate cultures at 37 °C for 24 h. After treatment of cells with the serial concentrations of the compound to be tested incubation is carried out for 48 h at 37 °C, then the plates are to be examined under the inverted microscope and proceed for the MTT assay.
(§3) The 3–(4, 5-dimethylthiazol-2-yl)-2,5-diphenyltetrazolium bromide (MTT) method[30] of monitoring in vitro cytotoxicity is well suited for use with multiwell plates. The assessment of cell population growth is based on the capability of living cells to reduce the yellow product MTT to a blue product, formazan, by a reduction reaction occurring in the mitochondria. The five cell lines were incubated for 24 h in 96-microwell plates. The number of living cells in the presence or absence (control) of the various test compounds is directly proportional to the intensity of the blue colour, measured by spectrophotometry using (ROBONIK P2000 Spectrophotometer) at a wavelength of 570 nm. Measure the background absorbance of multiwell plates at 690 nm and subtract from the 570 nm measurement. Five concentrations ranging from 0.01 μM to 100 μM (with semi-log decrease in concentration) were tested for each of the compounds under study. Each experiment was carried out in triplicate. The IC50 values [the concentration required for 50% inhibition of cell viability] were calculated using sigmoidal dose response curve-fitting models.

Another data set relates to NCI-H460. Nature of the data set: MTT cell viability assay. Format: cell-based, human. Particulars: Homo sapiens; NCI-H460 lung cancer, MTT, 48 h, mean ± SD of three experiments; read-out: IC50 (concentration required for 50% inhibition of cell viability). As for the experimental part:
as §1, §2, §3

The test system of a further data set is ACHN. Nature of the data set: MTT cell viability assay. It counts as cell-based, human. Particulars: Homo sapiens; ACHN renal cancer, MTT, 48 h, mean ± SD of three experiments; read-out: IC50 (concentration required for 50% inhibition of cell viability). As for the experimental part: as §1, §2, §3
(Tetrazolium dyes change colour on reduction, which living cells bring about.)

A word on the melting point: it is the temperature of the solid-liquid transition.

With `C#Cc1cccc(Nc2ncnc3cc(OCCOC)c(OCCOC)cc23)c1` [Erlotinib, reference compound], the IC50 in the data set with OVCAR-4 worked out at 2.79 ± 0.41 µM; in the data set with NCI-H460, 8.36 ± 0.69 µM; in the data set on ACHN, 12.4 ± 1.88 µM.

Take `Cc1nn(-c2ccc(F)cc2)c2ncnc(NN=Cc3ccncc3)c12` [Compound 10d, 1–(4-Fluorophenyl)-3-methyl-4–(2-(pyridin-4-yl-methylidene) hydrazinyl)-1H-pyrazolo[3,4-d]pyrimidine]: the melting point fell in the range of 262 to 264 °C.
